Results reported in patent US8163793B2, “Proline derivatives” (Hoffman-La Roche Inc., priority 2009, dated 2012).
Where a name gives a salt, the structure may show the parent alone.

Legend:
[1] = molecular target: Cathepsin S (UniProt P25774); assay: Cathepsin enzyme inhibition assay (fluorogenic peptide substrate Z-Val-Val-Arg-AMC), Cathepsin S; format: biochemical, human and mouse; details: enzyme 1 nM, substrate 20 μM, pH 6.5; read-out: CatS IC50
Procedure: (§1) Cathepsin Enzyme Inhibition Assay
(§2) Enzyme activity is measured by observing the increase in fluorescence intensity caused by cleavage of a peptide substrate containing a fluorophore whose emission is quenched in the intact peptide.
(§3) Assay buffer: 100 mM potassium phosphate pH 6.5, EDTA-Na 5 mM, Triton X-100 0.001%, DDT 5 mM.
(§4) Enzymes (all at 1 nM): human and mouse Cathepsin S, Cat K, Cat B, Cat L Substrate (20 μM): Z-Val-Val-Arg-AMC, except for Cat K which uses Z-Leu-Arg-AMC (both from Bachem).
(§5) AMC=7-Amino-4-Methyl-Coumarin.
Enzyme is added to the substance dilutions in 96-well microtitre plates and the reaction is started with substrate. […] IC50 are calculated by standard methods. The results are expressed in μM in the following table.

[2] = molecular target: Cat L (UniProt P07711); assay: Cathepsin enzyme inhibition assay (fluorogenic peptide substrate Z-Val-Val-Arg-AMC), Cathepsin L; format: biochemical, human and mouse; details: enzyme 1 nM, substrate 20 μM, pH 6.5; read-out: CatL IC50
Procedure: as §1, §2, §3, §4, §5
Excitation 360 nm, Emission 465 nm.
Enzyme is added to the substance dilutions in 96-well microtitre plates and the reaction is started with substrate. Fluorescence emission is measured over 20 minutes, during which time a linear increase is observed in the absence of inhibitor. IC50 are calculated by standard methods. The results are expressed in μM in the following table.

| SMILES | IC50 [1] | IC50 [2] |
| --- | --- | --- |
| CC(C)(C)OC(=O)N1C[C@H](S(=O)(=O)c2ccccc2Cl)C[C@H]1C(=O)NC1(C#N)CCCCC1 [Example 35, (2S,4R)-4-(2-Chloro-benzenesulfonyl)-2-(1-cyano-cyclohexylcarbamoyl)-pyrrolidine-1-carboxylic acid tert-butyl ester] | 4100 nM | ≥ 25000 nM |
| CC(C)(C)OC(=O)N1C[C@H](S(=O)(=O)c2c(Cl)cccc2Cl)C[C@H]1C(=O)NC1(C#N)CC1 [Example 5, (2S,4R)-2-(1-Cyano-cyclopropylcarbamoyl)-4-(2,6-dichloro-benzenesulfonyl)-pyrrolidine-1-carboxylic acid tert-butyl ester] | 0.8 nM | 9770 nM |
| N#CC1(NC(=O)[C@@H]2C[C@@H](S(=O)(=O)c3ccc(F)cc3F)CN2C(=O)C2(c3ccc(Cl)cc3)CC2)CC1 [Example 235, (2S,4R)-1-[1-(4-Chloro-phenyl)-cyclopropanecarbonyl]-4-(2,4-difluoro-benzenesulfonyl)-pyrrolidine-2-carboxylic acid (1-cyano-cyclopropyl)-amide] | 0.95 nM | 550 nM |
| N#CC1(NC(=O)[C@@H]2C[C@@H](S(=O)(=O)c3ccc(N4CCC(F)(F)CC4)cc3Cl)CN2)CC1 [Example 155, (2S,4R)-4-[2-Chloro-4-(4,4-difluoro-piperidin-1-yl)-benzenesulfonyl]-pyrrolidine-2-carboxylic Acid (1-cyano-cyclopropyl)-amide] | 2.5 nM | 8320 nM |
| N#CC1(NC(=O)[C@@H]2C[C@@H](S(=O)(=O)c3ccccc3C(F)(F)F)CN2Cc2ccncc2)CC1 [Example 108, (2S,4R)-1-Pyridin-4-ylmethyl-4-(2-trifluoromethyl-benzenesulfonyl)-pyrrolidine-2-carboxylic Acid (1-cyano-cyclopropyl)-amide] | 5.8 nM | 47700 nM |
| N#CC1(NC(=O)[C@@H]2C[C@@H](S(=O)(=O)c3ccc(-n4cccn4)cc3Cl)CN2C(=O)C2(c3ccc(Cl)nc3)CC2)CC1 [Example 380, (2S,4R)-4-(2-Chloro-4-pyrazol-1-yl-benzenesulfonyl)-1-[1-(6-chloro-pyridin-3-yl)-cyclopropanecarbonyl]-pyrrolidine-2-carboxylic acid (1-cyano-cyclopropyl)-amide] | 0.05 nM | 130 nM |
| CCN1CCN(c2ccc(S(=O)(=O)[C@@H]3C[C@H](C(=O)NC4(C#N)CC4)N(c4ncccc4C(F)(F)F)C3)c(Cl)c2)CC1 [Example 191, (2R,4R)-4-[2-Chloro-4-(4-ethyl-piperazin-1-yl)-benzenesulfonyl]-1-(3-trifluoromethyl-pyridin-2-yl)-pyrrolidine-2-carboxylic acid (1-cyano-cyclopropyl)-amide] | 107 nM | ≥ 25000 nM |
| CC(C)(C)OC(=O)N1C[C@H](S(=O)(=O)c2ccc(Cl)cc2OCC(F)(F)F)C[C@H]1C(=O)NC1(C#N)CC1 [Example 221, (2S,4R)-4-[4-Chloro-2-(2,2,2-trifluoro-ethoxy)-benzenesulfonyl]-2-(1-cyano-cyclopropylcarbamoyl)-pyrrolidine-1-carboxylic acid tert-butyl ester] | 130 nM | ≥ 25000 nM |
| N#CC1(NC(=O)C2CC(S(=O)(=O)c3ccccc3C(F)(F)F)CN2c2cccc(C(F)(F)F)c2)CC1 (stereo not shown) [Example 354, 4-(2-Trifluoromethyl-benzenesulfonyl)-1-(3-trifluoromethyl-phenyl)-pyrrolidine-2-carboxylic Acid (1-cyano-cyclopropyl)-amide] | 0.175 nM | ≥ 25000 nM |
| N#CC1(NC(=O)[C@@H]2C[C@@H](S(=O)(=O)c3ccc(N4CCN(C5CC5)CC4)cc3Cl)CN2C(=O)C2(c3ccc(Cl)nc3)CC2)CC1 [Example 374, (2S,4R)-4-[2-Chloro-4-(4-cyclopropyl-piperazin-1-yl)-benzenesulfonyl]-1-[1-(6-chloro-pyridin-3-yl)-cyclopropanecarbonyl]-pyrrolidine-2-carboxylic acid (1-cyano-cyclopropyl)-amide; Compound with Formic Acid] | 0.07 nM | 50.3 nM |
| CC(C)(C)OC(=O)N[C@H]1CC[C@H](CC(=O)N2C[C@H](S(=O)(=O)c3ccc(OCC(F)(F)F)cc3Cl)C[C@H]2C(=O)NC2(C#N)CC2)CC1 [Example 264, (4-{2-[(2S,4R)-4-[2-Chloro-4-(2,2,2-trifluoro-ethoxy)-benzenesulfonyl]-2-(1-cyano-cyclopropylcarbamoyl)-pyrrolidin-1-yl]-2-oxo-ethyl}-cyclohexyl)-carbamic Acid Tert-butyl ester] | 0.495 nM | 8380 nM |
| Cc1cc(N2C[C@H](S(C)(=O)=O)C[C@H]2C(=O)NC2(C#N)CC2)n(-c2ccc(C(F)(F)F)cc2)n1 [Example 462, (2S,4R)-4-Methanesulfonyl-1-[5-methyl-2-(4-trifluoromethyl-phenyl)-2H-pyrazol-3-yl]-pyrrolidine-2-carboxylic acid (1-cyano-cyclopropyl)-amide] | 9490 nM | > 25000 nM |
| CC(C)(C)OC(=O)N1C[C@H](S(=O)(=O)c2ccccc2Cl)C[C@H]1C(=O)NC(C)(C#N)c1ccccc1 (stereo partly drawn) [Example 37, (2S,4R)-4-(2-Chloro-benzenesulfonyl)-2-[(cyano-methyl-phenyl-methyl)-carbamoyl]-pyrrolidine-1-carboxylic acid tert-butyl ester] | 1030 nM | ≥ 25000 nM |

Now from value to compound:

| IC50 [1] | IC50 [2] | SMILES |
| --- | --- | --- |
| 0.2 nM | 1000 nM | N#CC1(NC(=O)[C@@H]2C[C@@H](S(=O)(=O)c3ccc(Cl)cc3Cl)CN2C(=O)C2(c3ccccc3)CC2)CC1 [Example 224, (2S,4R)-4-(2,4-Dichloro-benzenesulfonyl)-1-(1-phenyl-cyclopropanecarbonyl)-pyrrolidine-2-carboxylic acid (1-cyano-cyclopropyl)-amide] |
| 8370 nM | ≥ 25000 nM | Cc1cc(N2C[C@H](S(C)(=O)=O)C[C@H]2C(=O)NC2(C#N)CC2)n(CCc2ccccc2)n1 [Example 448, (2S,4R)-4-Methanesulfonyl-1-(5-methyl-2-phenethyl-2H-pyrazol-3-yl)-pyrrolidine-2-carboxylic acid (1-cyano-cyclopropyl)-amide] |
| 0.13 nM | 1600 nM | CN1CCN(c2ccc(S(=O)(=O)[C@@H]3C[C@@H](C(=O)NC4(C#N)CC4)N(C(=O)C4(C(F)(F)F)CC4)C3)c(Cl)c2)CC1 [Example 290, (2S,4R)-4-[2-Chloro-4-(4-methyl-piperazin-1-yl)-benzenesulfonyl]-1-(1-trifluoromethyl-cyclopropanecarbonyl)-pyrrolidine-2-carboxylic acid (1-cyano-cyclopropyl)-amide] |
| 0.05 nM | 100 nM | N#CC1(NC(=O)[C@@H]2C[C@@H](S(=O)(=O)c3ccc(OCC(F)(F)F)cc3Cl)CN2C(=O)C2(c3ccc4c(c3)OCO4)CC2)CC1 [Example 384, (2S,4R)-1-(1-Benzo[1,3]dioxol-5-yl-cyclopropanecarbonyl)-4-[2-chloro-4-(2,2,2-trifluoro-ethoxy)-benzenesulfonyl]-pyrrolidine-2-carboxylic acid (1-cyano-cyclopropyl)-amide] |
| 0.7 nM | ≥ 25000 nM | CN1CCN(c2ccc(S(=O)(=O)[C@@H]3C[C@@H](C(=O)NC4(C#N)CC4)N(C(=O)OC(C)(C)C)C3)c(C(F)(F)F)c2)CC1 [Example 8, (2S,4R)-2-(1-Cyano-cyclopropylcarbamoyl)-4-[4-(4-methyl-piperazin-1-yl)-2-trifluoromethyl-benzenesulfonyl]-pyrrolidine-1-carboxylic acid tert-butyl ester] |
| 1 nM | 18400 nM | N#CC1(NC(=O)[C@@H]2C[C@@H](S(=O)(=O)c3ccc(Cl)cc3Cl)CN2C(=O)C2CC2(F)F)CC1 (stereo partly drawn) [Example 170, (2S,4R)-4-(2,4-Dichloro-benzenesulfonyl)-1-(2,2-difluoro-cyclopropanecarbonyl)-pyrrolidine-2-carboxylic acid (1-cyano-cyclopropyl)-amide] |
| 0.3 nM | 12600 nM | N#CC1(NC(=O)[C@@H]2C[C@@H](S(=O)(=O)c3ccccc3Cl)CN2C(=O)CC(F)(F)F)CC1 [Example 219, (2S,4R)-4-(2-Chloro-benzenesulfonyl)-1-(3,3,3-trifluoro-propionyl)-pyrrolidine-2-carboxylic Acid (1-cyano-cyclopropyl)-amide] |
| 1.3 nM | ≥ 25000 nM | N#CC1(NC(=O)[C@@H]2C[C@@H](S(=O)(=O)c3ccc(-n4cccn4)cc3C(F)(F)F)CN2)CC1 [Example 19, (2S,4R)-4-(4-Pyrazol-1-yl-2-trifluoromethyl-benzenesulfonyl)-pyrrolidine-2-carboxylic acid (1-cyano-cyclopropyl)-amide hydrochloride] |
| 5.2 nM | 16500 nM | CC(C)(C)OC(=O)N1C[C@H](S(=O)(=O)c2ccc(Cl)cc2Cl)C[C@H]1C(=O)NC1(C#N)CC1 [Example 4, (2S,4R)-2-(1-Cyano-cyclopropylcarbamoyl)-4-(2,4-dichloro-benzenesulfonyl)-pyrrolidine-1-carboxylic acid-tert-butyl ester] |
| 4 nM | 1620 nM | Cc1cc(N2C[C@H](S(=O)(=O)c3ccccc3Cl)C[C@H]2C(=O)NC2(C#N)CC2)n(Cc2ccc(Cl)cc2)n1 [Example 418, (2S,4R)-4-(2-Chloro-benzenesulfonyl)-1-[2-(4-chloro-benzyl)-5-methyl-2H-pyrazol-3-yl]-pyrrolidine-2-carboxylic acid (1-cyano-cyclopropyl)-amide] |
